The results in this text go back to PubChem BioAssay AID200 (DTP/NCI, 2004).

Values joined by “and” are separate entries in the source; they are usually repeats but may differ in a detail not shown here. Equal entries are not always repeated. Inconclusive results and toxic doses are left out.

The test has as its system B6C3F1 mice, B16 melanoma ip, median survival T/C. The experiment in a line: NCI In Vivo Anticancer Drug Screen. Data for tumor model B16 Melanoma (intraperitoneal) in B6C3F1 mice. The settings on record: endpoint: median survival time, higher = longer survival. Put shortly:
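Readout: survival or tumor size in treated mice relative to vehicle controls (T/C). Model uses transplantable tumors grown in mice.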

[1] abbreviates: dose: 100.0 mg/kg/injection, schedule: Q01DX009 (ip), vehicle: distilled water + Tween-80.
Where [2] appears, read: dose: 1.56 mg/kg/injection, schedule: Q01DX009 (ip), vehicle: saline with Tween-80.
The mark [3] stands for this setting: dose: 3.12 mg/kg/injection, schedule: Q01DX009 (ip), vehicle: Klucel (hydroxypropylcellulose) (HPC).
Setting [4] is: dose: 3.12 mg/kg/injection, schedule: Q01DX009 (ip), vehicle: saline with Tween-80.
The mark [5] stands for this setting: dose: 6.25 mg/kg/injection, schedule: Q01DX009 (ip), vehicle: Klucel (hydroxypropylcellulose) (HPC).
Where [6] appears, read: dose: 6.25 mg/kg/injection, schedule: Q01DX009 (ip), vehicle: saline with Tween-80.
Setting [7] is: dose: 12.5 mg/kg/injection, schedule: Q01DX009 (ip), vehicle: Klucel (hydroxypropylcellulose) (HPC).
The mark [8] stands for this setting: dose: 12.5 mg/kg/injection, schedule: Q01DX009 (ip), vehicle: saline with Tween-80.
Where [9] appears, read: dose: 25.0 mg/kg/injection, schedule: Q01DX009 (ip), vehicle: Klucel (hydroxypropylcellulose) (HPC).
[10] abbreviates: dose: 25.0 mg/kg/injection, schedule: Q01DX009 (ip), vehicle: saline with Tween-80.
Setting [11] is: dose: 50.0 mg/kg/injection, schedule: Q01DX009 (ip), vehicle: saline with Tween-80.
Setting [12] is: dose: 100.0 mg/kg/injection, schedule: Q01DX009 (ip), vehicle: saline.
Setting [13] is: dose: 200.0 mg/kg/injection, schedule: Q01DX009 (ip), vehicle: saline.
The mark [14] stands for this setting: dose: 50.0 mg/kg/injection, schedule: Q01DX009 (ip), vehicle: Klucel (hydroxypropylcellulose) (HPC).
The mark [15] stands for this setting: dose: 100.0 mg/kg/injection, schedule: Q01DX009 (ip), vehicle: Klucel (hydroxypropylcellulose) (HPC).
The mark [16] stands for this setting: dose: 1.56 mg/kg/injection, schedule: Q01DX009 (ip), vehicle: saline.
The mark [17] stands for this setting: dose: 3.12 mg/kg/injection, schedule: Q01DX009 (ip), vehicle: saline.
Where [18] appears, read: dose: 6.25 mg/kg/injection, schedule: Q01DX009 (ip), vehicle: saline.
[19] abbreviates: dose: 12.5 mg/kg/injection, schedule: Q01DX009 (ip), vehicle: saline.
[20] abbreviates: dose: 100.0 mg/kg/injection, schedule: Q01DX009 (ip), vehicle: saline with Tween-80.
[21] abbreviates: dose: 200.0 mg/kg/injection, schedule: Q01DX009 (ip), vehicle: saline with Tween-80.
The mark [22] stands for this setting: dose: 400.0 mg/kg/injection, schedule: Q01DX009 (ip), vehicle: saline with Tween-80.
[23] abbreviates: dose: 25.0 mg/kg/injection, schedule: Q01DX009 (ip), vehicle: saline.

In the case of `N#Cc1ccc(NC(=O)Nc2nccs2)cc1`, the T/C under setting [1] was 150 % of control.

For `C=C1[C@@H](O)[C@]2(O)OC[C@@]34[C@H]1[C@@H](OC(=O)C(C)CC)C(=O)O[C@@H]3C[C@H]1C(C)=CC(=O)[C@@H](O)[C@]1(C)[C@@H]24` (some centres not stated), the T/C is 175 % of control (dose: 1.0 mg/kg/injection, schedule: Q01DX009 (ip), vehicle: saline with Tween-80); 165 % of control (dose: 2.0 mg/kg/injection, schedule: Q01DX009 (ip), vehicle: saline with Tween-80); 175 % of control (dose: 4.0 mg/kg/injection, schedule: Q01DX009 (ip), vehicle: saline with Tween-80); 165 % of control (dose: 8.0 mg/kg/injection, schedule: Q01DX009 (ip), vehicle: saline with Tween-80); 180 % of control (dose: 16.0 mg/kg/injection, schedule: Q01DX009 (ip), vehicle: saline with Tween-80).

Take `O=c1s[se]c2ccccc12`: the T/C reads like this: (dose: 1.56 mg/kg/injection, schedule: Q01DX009 (ip), vehicle: Klucel (hydroxypropylcellulose) (HPC)) 94 % of control; under setting [2], 104 % of control; under setting [3], 108 % of control; under setting [4], 114 % of control; under setting [5], 97 % of control; under setting [6], 87 % of control. Also, the T/C was 98 % of control under setting [7]; 103 % of control under setting [8]; 94 % of control under setting [9]; 105 % of control under setting [10]; 92 % of control under setting [11].

In the case of `C=C1N(C)c2ccccc2C1(C)C`, the T/C by setting is: under setting [6], 110 % of control; under setting [8], 108 % of control.

With `COc1ccc(C(Cn2ccnc2)Sc2ccc(Cl)c(Cl)c2)cc1` (configuration not stated), the T/C is, setting by setting: under setting [4], 94 % of control; under setting [6], 92 % of control and 96 % of control and 107 % of control; under setting [8], 95 % of control and 96 % of control and 103 % of control; under setting [10], 95 % of control and 97 % of control and 100 % of control.

On to `CC(NC(=O)C1CCCN1C(=O)CN)C(=O)O` (configuration not stated), for which the T/C is, setting by setting: under setting [12], 105 % of control; under setting [13], 92 % of control; (dose: 400.0 mg/kg/injection, schedule: Q01DX009 (ip), vehicle: saline) 96 % of control.

In the case of `Cc1c2cc[n+](C)cc2c(C)c2c1[nH]c1ccc(O)cc12`, the T/C (dose: 0.12 mg/kg/injection, schedule: Q01DX009 (ip), vehicle: water) was 107 % of control; the T/C (dose: 0.13 mg/kg/injection, schedule: Q01DX009 (ip), vehicle: water) is 117 % of control; the T/C (dose: 1.25 mg/kg/injection, schedule: Q01DX009 (ip), vehicle: saline) was 123 % of control; the T/C (dose: 2.5 mg/kg/injection, schedule: Q01DX009 (ip), vehicle: saline) is 116 % of control.

`CN=C(NC#N)NCCSCc1nc[nH]c1C`: the T/C is, setting by setting: under setting [7], 114 % of control; under setting [9], 96 % of control; under setting [14], 104 % of control; under setting [15], 101 % of control; (dose: 200.0 mg/kg/injection, schedule: Q01DX009 (ip), vehicle: Klucel (hydroxypropylcellulose) (HPC)) 102 % of control; (dose: 400.0 mg/kg/injection, schedule: Q01DX009 (ip), vehicle: Klucel (hydroxypropylcellulose) (HPC)) 98 % of control.

As for `CCOc1ccc(-c2nc3ccc(-c4nc5ccc(N6CCN(C)CC6)cc5[nH]4)cc3[nH]2)cc1`, the T/C is 113 % of control under setting [16], 114 % of control under setting [17], 110 % of control under setting [18] and 110 % of control under setting [19].

In the case of `CC(=O)[C@]1(O)Cc2c(O)c3c(c(O)c2[C@@H](OC2CC(N)C(O)C(C)O2)C1)C(=O)c1c(O)cccc1C3=O` (some centres not stated), the T/C (dose: 0.38 mg/kg/injection, schedule: Q01DX001 (ip), vehicle: water) was 150 % of control.

On to `[Cl][Hg][CH]1CCC2OC1CC[CH]2[Hg][Cl]` (configuration not stated), for which the T/C under setting [2] is 97 % of control, the T/C under setting [4] was 97 % of control and the T/C under setting [6] is 101 % of control.

For `CC1=CC(=O)C(O)C2(C)C1CC1OC(=O)C(OC(=O)CC(C)(C)O)C3C(C)C(O)C4(O)OCC13C42` (configuration not stated), the T/C runs as follows: (dose: 0.25 mg/kg/injection, schedule: Q01DX009 (ip), vehicle: saline + alcohol) 108 % of control; (dose: 0.5 mg/kg/injection, schedule: Q01DX009 (ip), vehicle: saline + alcohol) 116 % of control; (dose: 1.0 mg/kg/injection, schedule: Q01DX009 (ip), vehicle: saline + alcohol) 110 % of control; (dose: 2.0 mg/kg/injection, schedule: Q01DX009 (ip), vehicle: saline + alcohol) 116 % of control; (dose: 4.0 mg/kg/injection, schedule: Q01DX009 (ip), vehicle: saline + alcohol) 120 % of control.

As for `CC1C(=O)c2cc3c(cc2CCN(C)Cc2c1ccc1c2OCO1)OCO3` (configuration not stated), the T/C was 100 % of control (dose: 5.0 mg/kg/injection, schedule: Q01DX009 (ip), vehicle: saline with Tween-80); 104 % of control (dose: 10.0 mg/kg/injection, schedule: Q01DX009 (ip), vehicle: saline with Tween-80); 103 % of control (dose: 20.0 mg/kg/injection, schedule: Q01DX009 (ip), vehicle: saline with Tween-80).

With `Cc1nn(CCO)c(C)c1N=[N+]([O-])c1c(C)nn(CCO)c1C`, the T/C is, setting by setting: under setting [3], 107 % of control; under setting [4], 97 % of control; under setting [5], 109 % of control; under setting [6], 100 % of control; under setting [7], 111 % of control; under setting [8], 92 % of control. Moreover, the T/C was 95 % of control under setting [9]; 92 % of control under setting [10]; 91 % of control under setting [14]; 96 % of control under setting [11]; 91 % of control under setting [15].

Take `Nc1ccc(S(N)(=O)=O)cc1`: the T/C was 94 % of control under setting [8]; 86 % of control and 99 % of control under setting [10]; 98 % of control and 100 % of control under setting [11]; 105 % of control and 108 % of control under setting [20]; 114 % of control and 101 % of control under setting [21]; 90 % of control and 99 % of control under setting [22].

With `CN(CO)c1nc(N(C)CO)nc(N(C)CO)n1`, the T/C is, setting by setting: under setting [19], 113 % of control and 115 % of control; under setting [23], 118 % of control; under setting [12], 153 % of control and 190 % of control.

Take `NCCCNCCSP(=O)(O)O`: the T/C runs as follows: under setting [8], 108 % of control; under setting [19], 104 % of control and 106 % of control; under setting [10], 97 % of control; under setting [23], 115 % of control and 97 % of control; under setting [11], 105 % of control; (dose: 50.0 mg/kg/injection, schedule: Q01DX009 (ip), vehicle: saline) 109 % of control and 111 % of control. Further, the T/C under setting [20] is 108 % of control; the T/C under setting [12] was 109 % of control and 115 % of control; the T/C under setting [21] is 104 % of control; the T/C under setting [13] was 121 % of control and 124 % of control.

For the molecule `OCCN1CCN(CC/C=C2/c3ccccc3Sc3ccc(Cl)cc32)CC1`, the T/C is 101 % of control under setting [16]; 102 % of control under setting [17]; 103 % of control and 105 % of control under setting [18]; 93 % of control and 106 % of control under setting [19]; 100 % of control under setting [23].

Consider `OCc1c(CO)c(-c2ccc(Cl)cc2)n2c1CCC2`, for which the T/C runs as follows: (dose: 25.0 mg/kg/injection, schedule: Q01DX009 (ip), vehicle: distilled water + Tween-80) 94 % of control; (dose: 50.0 mg/kg/injection, schedule: Q01DX009 (ip), vehicle: distilled water + Tween-80) 107 % of control; under setting [1], 121 % of control; (dose: 200.0 mg/kg/injection, schedule: Q01DX009 (ip), vehicle: distilled water + Tween-80) 198 % of control.

As for `CC(=O)NC(Cc1ccc(F)cc1)C(=O)O` (configuration not stated), the T/C is, setting by setting: under setting [10], 123 % of control; under setting [11], 121 % of control; under setting [20], 121 % of control; under setting [21], 110 % of control; under setting [22], 111 % of control; (dose: 800.0 mg/kg/injection, schedule: Q01DX009 (ip), vehicle: saline with Tween-80) 121 % of control.
